Data: US20240166589A1, “METHOD FOR PRODUCING FORM-II TYPE REDUCED COENZYME Q10 CRYSTAL OR CRYSTALLINE SOLID OF SAME, AND CRYSTALLIZING APPARATUS” (KANEKA CORPORATION, priority 2021, published 2024)

Experiments:
[1] = Saturation concentration in an alcohol; type: physicochemical
[2] = reported in Patent Literature 4; cited from earlier work
[3] = Oxidation stability (relative percentage of QH) after open storage in a constant temperature bath, HPLC; type: physicochemical; conditions: open system, 1 month, relative to initial reduced coenzyme Q10 content as 100; for Relative percentage of QH (25° C., 1M): 25° C. and RH 60%; for Relative percentage of QH (40° C., 1M): 40° C. and RH 75%
Description: The oxidation stability of the reduced coenzyme Q10 crystals obtained in Examples was evaluated by the following method.
The reduced coenzyme Q10 crystals obtained in Examples were stored in an open system for one month in a constant temperature bath set at 40° C. and RH (relative humidity) of 75% and at 25° C. and RH of 60% and then subjected to high-performance liquid chromatography to calculate the content ratio of reduced coenzyme Q10 (QH) and oxidized coenzyme Q10.
The oxidation stability of reduced coenzyme Q10 crystal was calculated as a relative percentage of QH by the following formula based on the relative value with the content of reduced coenzyme Q10 for the initial reduced coenzyme Q10 crystal before storage in a constant temperature bath, i.e., the content of reduced coenzyme Q10 when measured using the crystals obtained in Examples immediately after obtaining the crystals, as 100.
Relative percentage of QH (%)=Content of reduced coenzyme Q10 after storage/Content of initial reduced coenzyme Q10×100
Conditions for the high performance liquid chromatography, by which the reduced coenzyme Q10 concentration and the oxidized coenzyme Q10 concentration were measured, are shown below.
• Column: SYMMETRY C18 (manufactured by Waters); 250 mm (length), 4.6 mm (inner diameter) • Mobile phase: C2H5OH:CH3OH=4:3 (v:v) • Detection wavelength: 210 nm • Flow rate: 1 ml/min

Compound	saturation concentration compared with Form I crystal [1]	stability compared with reduced coenzyme Q10 Form I crystal [2]	Relative percentage of QH (25° C., 1M) [3]	Relative percentage of QH (40° C., 1M) [3]
COc1c(O)c(C)c(C/C=C(\C)CC/C=C(\C)CC/C=C(\C)CC/C=C(\C)CC/C=C(\C)CC/C=C(\C)CC/C=C(\C)CC/C=C(\C)CC/C=C(\C)CCC=C(C)C)c(O)c1OC [reduced coenzyme Q10 Form II crystal, reduced coenzyme Q10]	lower than the saturation concentration of a Form I crystal	much more stable		
COc1c(O)c(C)c(C/C=C(\C)CC/C=C(\C)CC/C=C(\C)CC/C=C(\C)CC/C=C(\C)CC/C=C(\C)CC/C=C(\C)CC/C=C(\C)CC/C=C(\C)CCC=C(C)C)c(O)c1OC [Example 1, reduced coenzyme Q10]			91.8%	88.1%
COc1c(O)c(C)c(C/C=C(\C)CC/C=C(\C)CC/C=C(\C)CC/C=C(\C)CC/C=C(\C)CC/C=C(\C)CC/C=C(\C)CC/C=C(\C)CC/C=C(\C)CCC=C(C)C)c(O)c1OC [Example 3, reduced coenzyme Q10]			89.4%	87.3%
COc1c(O)c(C)c(C/C=C(\C)CC/C=C(\C)CC/C=C(\C)CC/C=C(\C)CC/C=C(\C)CC/C=C(\C)CC/C=C(\C)CC/C=C(\C)CC/C=C(\C)CCC=C(C)C)c(O)c1OC [Example 4, reduced coenzyme Q10]			92.2%	90.1%
COc1c(O)c(C)c(C/C=C(\C)CC/C=C(\C)CC/C=C(\C)CC/C=C(\C)CC/C=C(\C)CC/C=C(\C)CC/C=C(\C)CC/C=C(\C)CC/C=C(\C)CCC=C(C)C)c(O)c1OC [Example 2, reduced coenzyme Q10]			85.1%	81.4%
